We go through 66 compounds from ChEMBL document CHEMBL6109055, “Naphtho[1,2-b][1,4]diazepinedione-Based P2X4 Receptor Antagonists from Structure-Activity Relationship Studies toward PET Tracer Development” (J Med Chem, 2025).

A value given as a limit tells only on which side of the number the result lay.

For orientation: logD means the decadic logarithm of the distribution of all forms, ionised or not, between an organic phase and buffer at a given pH. A lower logD goes with lower lipophilicity.

In one series the target is P2X purinoceptor 4 (Homo sapiens, UniProt Q99571). Description: Antagonist activity at human P2X4 receptor overexpressed in human 1321N1 cells assessed as inhibition of ATP-induced calcium responses by Fluo-4 AM/Ca2+ Flux assay. The series is classed as cell-based.
P2X purinoceptor 4, sequence (Q99571 whole entry): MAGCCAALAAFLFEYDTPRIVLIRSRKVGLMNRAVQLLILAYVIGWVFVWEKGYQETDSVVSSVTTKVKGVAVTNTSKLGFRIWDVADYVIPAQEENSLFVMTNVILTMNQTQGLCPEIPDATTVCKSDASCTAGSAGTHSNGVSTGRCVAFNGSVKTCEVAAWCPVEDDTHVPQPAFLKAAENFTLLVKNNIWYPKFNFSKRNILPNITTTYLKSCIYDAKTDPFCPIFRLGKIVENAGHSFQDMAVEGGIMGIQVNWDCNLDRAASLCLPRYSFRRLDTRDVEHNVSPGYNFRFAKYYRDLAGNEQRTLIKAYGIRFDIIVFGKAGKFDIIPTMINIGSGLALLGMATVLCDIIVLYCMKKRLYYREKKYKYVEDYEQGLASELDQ
Series [1] in a line: Lipophilicity, logD of compound in n-octanol and buffer at pH 7.4 by LC-MS analysis. The series is classed as physicochemical.
Series [2] in a line: Plasma protein binding in unknown origin. The series is classed as ADME, cell-free. The conditions noted are these: read-out: PPB (converted).
The nature of series [3]: Metabolic stability in C57BL/6 mouse liver microsomes assessed as remaining parent compound by UPLC-UV/MS analysis. Format: ADME, Microsome.
The next series concerns THP-1. Description: Inhibition of NLRP3 inflammasome activation in LPS-activated human THP-1 cells assessed as inhibition of LPS/ATP induced IL-1beta secretion at 100 nM preincubated with PMA for 24 hrs followed further stimulated with LPS for 3 hrs and further incubated with compound and ATP for 30 mins by ELISA method. Format: cell-based.

`O=C1CC(=O)N(c2ccc(NS(=O)(=O)Cc3ccc(F)cc3)cc2)c2ccc3ccccc3c2N1`: the IC50 at P2X purinoceptor 4 (read-out: IC50) amounted to 88 nM.
The compound `O=C1CC(=O)N(c2ccc(NS(=O)(=O)Cc3ccccc3Cl)cc2)c2ccc3ccccc3c2N1` yielded a pH-dependent lipophilicity (logD) in series [1] of 3.39. Also, in series [2], the fraction unbound was below 0.02. In addition, the Stability in series [3] is 71%.
On to `O=C1CC(=O)N(c2ccc(NS(=O)(=O)c3cccnc3F)cc2)c2ccc3ccccc3c2N1`, for which the IC50 at P2X purinoceptor 4 (read-out: IC50) is 1120 nM; at P2X purinoceptor 4 (read-out: pIC50 (converted)) it was 1100 nM. Also, the logD in series [1] worked out at 1.78. Besides, in series [2], the fraction unbound is 0.06. Also, in series [3], the Stability is listed as 95%.
For `O=C1CC(=O)N(c2ccc(NS(=O)(=O)Cc3ccc(Br)cc3Cl)cc2)c2ccc3ccccc3c2N1`, at P2X purinoceptor 4 (read-out: IC50), the IC50 turned out to be 531 nM.
For the compound `O=C1CC(=O)N(c2ccc(NC(=O)c3ccccc3Cl)cc2)c2ccc3ccccc3c2N1`, the IC50 at P2X purinoceptor 4 (read-out: IC50) is 481 nM.
Still for that read-out and setting: next, `O=C1CC(=O)N(c2ccc(NS(=O)(=O)c3ccc(C(F)(F)F)cc3Cl)cc2)c2ccc3ccccc3c2N1`: 3390 nM; `O=C1CC(=O)N(c2ccc(NS(=O)(=O)Cc3cc(F)ccc3Cl)cc2)c2ccc3ccccc3c2N1`: 81 nM.
In the case of `Cc1ccc(Cl)c(S(=O)(=O)Nc2ccc(N3C(=O)CC(=O)Nc4c3ccc3ccccc43)cc2)c1`, at P2X purinoceptor 4 (read-out: IC50), the IC50 is 373 nM.
Same read-out and setting: next, `O=C1CC(=O)N(c2ccc(NS(=O)(=O)c3ccccc3Cl)cc2)c2ccc3ccccc3c2N1`: 445 nM.
On the same count and under the same terms, under `Cc1cc(Br)ccc1S(=O)(=O)Nc1ccc(N2C(=O)CC(=O)Nc3c2ccc2ccccc32)cc1` stands 263 nM; under `O=C1CC(=O)N(c2ccc(NS(=O)(=O)Cc3ccc(B(O)O)cc3Cl)cc2)c2ccc3ccccc3c2N1`, 295 nM; under `O=C1CC(=O)N(c2ccccc2)c2ccc3ccccc3c2N1`, 9280 nM.
Regarding `Cc1cc(F)ccc1CS(=O)(=O)Nc1ccc(N2C(=O)CC(=O)Nc3c2ccc2ccccc32)cn1`, the IC50 at P2X purinoceptor 4 (read-out: IC50) turned out to be 14 nM. Further, the logD in series [1] was 2.59. Moreover, the fraction unbound in series [2] is 0.03. Moreover, in series [3], the Stability amounted to 67%.
Regarding `COc1ccccc1S(=O)(=O)Nc1ccc(N2C(=O)CC(=O)Nc3c2ccc2ccccc32)cc1`, the IC50 on P2X purinoceptor 4 (read-out: IC50) worked out at 90 nM.
As for `COc1cc(Br)ccc1S(=O)(=O)Nc1ccc(N2C(=O)CC(=O)Nc3c2ccc2ccccc32)cc1`, the IC50 at P2X purinoceptor 4 (read-out: IC50) was found to be 344 nM.
Same read-out and setting: next, `Cc1cc(Br)ccc1CS(=O)(=O)Nc1ccc(N2C(=O)CC(=O)Nc3c2ccc2ccccc32)cc1`: 97 nM; `O=C1CC(=O)N(c2ccc(NS(=O)(=O)c3ccc(Br)cc3Cl)cc2)c2ccc3ccccc3c2N1`: 1590 nM.
In the case of `O=C1CC(=O)N(c2ccc(NS(=O)(=O)Cc3ccc(F)cc3Cl)cc2)c2ccc3ccccc3c2N1`, the IC50 on P2X purinoceptor 4 (read-out: IC50) was found to be 23 nM. For the same compound, in series [1], the logD is 3.71. The fraction unbound in series [2] was below 0.02. Also, in series [3], the Stability is given as 58%.
For `O=C1CC(=O)N(c2ccc(NS(=O)(=O)c3ccc(F)cc3Cl)cc2)c2ccc3ccccc3c2N1` the same measures were 128 nM, 3.55, below 0.02 and 93%.
For the compound `O=C1CC(=O)N(c2ccc(NC(=O)c3cccnc3F)cc2)c2ccc3ccccc3c2N1`, the IC50 on P2X purinoceptor 4 (read-out: IC50) is 2410 nM.
Turning to `O=C1CC(=O)N(c2ccc(NS(=O)(=O)c3ccccc3I)cc2)c2ccc3ccccc3c2N1`, the IC50 at P2X purinoceptor 4 (read-out: IC50) turned out to be 264 nM.
On to `Nc1ccc(N2C(=O)CC(=O)Nc3c2ccc2ccccc32)cn1`, for which the IC50 on P2X purinoceptor 4 (read-out: IC50) amounted to 9920 nM.
Still for that read-out and setting: under `O=C1CC(=O)N(c2ccc(NC(=O)c3cccnc3Cl)cc2)c2ccc3ccccc3c2N1` stands 780 nM; under `O=C1CC(=O)N(c2ccc(NS(=O)(=O)c3cccnc3Cl)cc2)c2ccc3ccccc3c2N1`, 318 nM; under `Nc1ccc(N2C(=O)CC(=O)Nc3c2ccc2ccccc32)cc1`, 990 nM.
As to `Cc1cc(F)ccc1CS(=O)(=O)Nc1ccc(N2C(=O)CC(=O)Nc3c2ccc2ccccc32)nc1`, on P2X purinoceptor 4 (read-out: IC50), the IC50 was found to be 25 nM. In series [1], this compound registered a pH-dependent lipophilicity (logD) of 2.36. Besides, in series [2], the fraction unbound was 0.05. Besides, in series [3], the Stability was determined as 57%.
As to `Cc1cc(B(O)O)ccc1CS(=O)(=O)Nc1ccc(N2C(=O)CC(=O)Nc3c2ccc2ccccc32)cc1`, the IC50 on P2X purinoceptor 4 (read-out: IC50) worked out at 372 nM.
As to `O=C1CC(=O)N(c2ccc(NS(=O)(=O)c3ccc(F)cc3)cc2)c2ccc3ccccc3c2N1`, the IC50 at P2X purinoceptor 4 (read-out: IC50) was determined as 24800 nM.
On the same count and under the same terms, next, `CN(c1ccc(N2C(=O)CC(=O)Nc3c2ccc2ccccc32)cc1)S(=O)(=O)c1ccccc1`: 683 nM; `O=C1CC(=O)N(c2ccc(NS(=O)(=O)c3cccc4ccccc34)cc2)c2ccc3ccccc3c2N1`: 1650 nM.
Same read-out and setting: next, `Cc1ccccc1S(=O)(=O)Nc1ccc(N2C(=O)CC(=O)Nc3c2ccc2ccccc32)cc1`: 115 nM.
With `O=C1CC(=O)N(c2ccc(NS(=O)(=O)c3cc(C(F)(F)F)ccc3Cl)cc2)c2ccc3ccccc3c2N1`, the IC50 on P2X purinoceptor 4 (read-out: IC50) is 2730 nM.
For the compound `O=C1CC(=O)N(c2ccc(NS(=O)(=O)Cc3ccccc3Cl)nc2)c2ccc3ccccc3c2N1`, the IC50 at P2X purinoceptor 4 (read-out: IC50) came to 76 nM.
As to `O=C1CC(=O)N(c2ccc(NS(=O)(=O)Cc3c(Cl)cccc3Cl)cc2)c2ccc3ccccc3c2N1`, the IC50 on P2X purinoceptor 4 (read-out: IC50) was 74 nM.
Same read-out and setting: next, `O=C1CC(=O)N(c2ccc(NS(=O)(=O)c3cc(Br)ccc3Cl)cc2)c2ccc3ccccc3c2N1`: 175 nM; `O=C1CC(=O)N(c2ccc(NS(=O)(=O)c3ccc(B(O)O)cc3Cl)cc2)c2ccc3ccccc3c2N1`: 891 nM; `CN1C(=O)CC(=O)N(c2ccc(N(C)S(=O)(=O)c3ccccc3)cc2)c2ccc3ccccc3c21`: above 10000 nM.
Same read-out and setting: under `COc1cc(F)ccc1S(=O)(=O)Nc1ccc(N2C(=O)CC(=O)Nc3c2ccc2ccccc32)cc1` stands 59 nM.
Still for that read-out and setting: under `O=C1CC(=O)N(c2ccc(NS(=O)(=O)c3ccccc3F)cc2)c2ccc3ccccc3c2N1` stands 1170 nM; under `Nc1ccc(N2C(=O)CC(=O)Nc3c2ccc2ccccc32)nc1`, 6460 nM.
With `COc1ccc(Br)cc1S(=O)(=O)Nc1ccc(N2C(=O)CC(=O)Nc3c2ccc2ccccc32)cc1`, the IC50 at P2X purinoceptor 4 (read-out: IC50) came out at 2330 nM.
Same read-out and setting: next, `O=C1CC(=O)N(c2ccc(NS(=O)(=O)Cc3c(F)cccc3Cl)cc2)c2ccc3ccccc3c2N1`: 108 nM; `O=C1CC(=O)N(c2ccc(NS(=O)(=O)c3cccnc3[N+](=O)[O-])cc2)c2ccc3ccccc3c2N1`: 1000 nM.
Still for that read-out and setting: under `Cc1cc(B(O)O)ccc1S(=O)(=O)Nc1ccc(N2C(=O)CC(=O)Nc3c2ccc2ccccc32)cc1` stands 48 nM; under `Cc1cccc(Cl)c1S(=O)(=O)Nc1ccc(N2C(=O)CC(=O)Nc3c2ccc2ccccc32)cc1`, 385 nM; under `O=C1CC(=O)N(c2ccc(NS(=O)(=O)Cc3ccccc3)cc2)c2ccc3ccccc3c2N1`, 191 nM.
Regarding `O=C1CC(=O)N(c2ccc(NC(=O)c3cccnc3[N+](=O)[O-])cc2)c2ccc3ccccc3c2N1`, the IC50 at P2X purinoceptor 4 (read-out: IC50) was determined as 2280 nM.
On the same count and under the same terms, next, `O=C1CC(=O)N(c2ccc(NS(=O)(=O)Cc3ccc(F)cc3Br)cc2)c2ccc3ccccc3c2N1`: 76 nM.
For `Cc1ccc(F)cc1S(=O)(=O)Nc1ccc(N2C(=O)CC(=O)Nc3c2ccc2ccccc32)cc1`, the IC50 on P2X purinoceptor 4 (read-out: IC50) came out at 179 nM.
The same measure, in the same setting: under `O=C1CC(=O)N(c2ccc(NS(=O)(=O)Cc3ccccc3Cl)cn2)c2ccc3ccccc3c2N1` stands 17 nM.
On the same count and under the same terms, next, `COc1ccc(S(=O)(=O)Nc2ccc(N3C(=O)CC(=O)Nc4c3ccc3ccccc43)cc2)cc1`: 3950 nM; `O=C(Cc1cc(F)ccc1Cl)Nc1ccc(N2C(=O)CC(=O)Nc3c2ccc2ccccc32)cc1`: 442 nM.
For the compound `O=C1CC(=O)N(c2ccc(NS(=O)(=O)c3cc(F)ccc3Cl)cc2)c2ccc3ccccc3c2N1`, on P2X purinoceptor 4 (read-out: IC50), the IC50 was found to be 135 nM. Moreover, the logD in series [1] came out at 3.25. Besides, the fraction unbound in series [2] was below 0.02. Also, the Stability in series [3] amounted to 98%.
`Cc1cc(F)ccc1CS(=O)(=O)Nc1ccc(N2C(=O)CC(=O)Nc3c2ccc2ccccc32)cc1`: the IC50 on P2X purinoceptor 4 (read-out: pIC50 (converted)) was 7.59 nM. Also, in the series with THP-1, the inhibition entry was “Active; Compund More Potent Than Bay1797”. Further, the fraction unbound in series [2] was below 0.02. Also, the Stability in series [3] is 64%.
Regarding `O=C1CC(=O)N(c2ccc(NS(=O)(=O)c3ccccc3Br)cc2)c2ccc3ccccc3c2N1`, the IC50 at P2X purinoceptor 4 (read-out: IC50) was 240 nM.
On the same count and under the same terms, under `O=C1CC(=O)N(c2ccc(NS(=O)(=O)c3c(Cl)cccc3Cl)cc2)c2ccc3ccccc3c2N1` stands 650 nM; under `O=C1CC(=O)N(c2ccc(NC(=O)c3ccccc3F)cc2)c2ccc3ccccc3c2N1`, 2300 nM.
Still for that read-out and setting: under `CNCC[C@H](Oc1cccc2ccccc12)c1cccs1` [DULOXETINE] stands 5880 nM.
`Cc1cc(F)ccc1S(=O)(=O)Nc1ccc(N2C(=O)CC(=O)Nc3c2ccc2ccccc32)cc1`: the inhibition result with THP-1 is “Active; Compund More Potent Than Bay1797”. In series [2], the fraction unbound was below 0.02. In addition, in series [3], the Stability came out at 93%.
As to `O=C1CC(=O)N(c2ccc(NS(=O)(=O)c3ccc(F)cc3Br)cc2)c2ccc3ccccc3c2N1`, at P2X purinoceptor 4 (read-out: IC50), the IC50 was 64 nM.
Same read-out and setting: under `O=C1CC(=O)N(c2ccc(NS(=O)(=O)C3CCCCC3)cc2)c2ccc3ccccc3c2N1` stands 2580 nM.
On the same count and under the same terms, next, `COc1ccc(S(=O)(=O)Nc2ccc(N3C(=O)CC(=O)Nc4c3ccc3ccccc43)cc2)c(Cl)c1`: 5970 nM.
With `O=C(Cc1cc(Br)ccc1Cl)Nc1ccc(N2C(=O)CC(=O)Nc3c2ccc2ccccc32)cc1`, the IC50 at P2X purinoceptor 4 (read-out: IC50) is 1000 nM.
On the same count and under the same terms, next, `COc1ccc(F)cc1S(=O)(=O)Nc1ccc(N2C(=O)CC(=O)Nc3c2ccc2ccccc32)cc1`: 473 nM; `N#Cc1ccc(S(=O)(=O)Nc2ccc(N3C(=O)CC(=O)Nc4c3ccc3ccccc43)cc2)c(Cl)c1`: 14100 nM.
Turning to `O=C1CC(=O)N(c2ccc(NC(=O)c3ccccc3)cc2)c2ccc3ccccc3c2N1`, the IC50 on P2X purinoceptor 4 (read-out: IC50) worked out at 585 nM.
